Assay results as given in patent US20190030053A1, “COMPOSITION FOR INCREASING EXPRESSION OF PGC-1alpha” (BENEBIOSIS CO., LTD., priority 2016, published 2019).
“Also recorded” adds a separate entry of the source.

Columns and labels:
PGC-1α and related genes = experiment: Gene expression in muscle cell test (C2C12); assay type: cell-based; settings: C2C12 immature muscle cells, 24 hours
Experimental: C2C12 immature muscle cells were prepared from the purchase from American Tissue Culture Collection (ATCC, USA). The cells were cultured in Dulbecco's modified Eagle's medium (DMEM, Gibco, USA) supplemented with 10% fetal bovine serum (FBS, USA) in a 5% CO2 incubator at 37° C. until the cells grew to confluency of 70%, while the medium was exchanged every two days. The differentiation into muscle cells was induced by culturing in a medium containing 2% horse serum (HS, Gibco, USA). The muscle cells cultured in the medium containing 2% HS for 4 days were treated with SL with various concentrations. The negative control group was treated with physiological saline with 1/1000 of the volume of the medium. The cells treated with each sample were incubated at 37° C. for 24 hours, and then washed twice with cool saline solution, and RNA was extracted using TRIzol agent (Invitrogen). cDNA was synthesized by using 1 μg/μl of RNA, which has been extracted as above and quantified, and a reverse transcription system (Promega, USA).
The expression patterns of PGC-1α and related genes were measured by using pre-designed primers and probes (Applied Biosystems; PGC-1α, Mm00447181_m1, GAPDH, and Mm99999915_q1) for the synthesized cDNA and analysis targets (Fndc5, PGC-1α, Erra, UCP1, SOD2, and GPX1). […]

[1] = system: Alzheimer's disease model mice (3×Tg); experiment: Cognitive ability test (Morris water maze) in Alzheimer's disease models; assay type: in vivo, mouse; settings: 3×Tg mice, oral 0.1 mg/kg/day; test for 7 days
Source text: In order to investigate the changes in gene expression and cognitive ability by the treatment with SL (3′-SL & 6′-SL) compositions in Alzheimer's brain disease models, 6-week-old mice were purchased from Central Lab Animal (Korea). Water was freely accessible, and a commercially available pellet feed (Dooyeul Biotech, Korea) was given for two weeks. At 8 weeks of age, the mice were divided into three groups (composed of eight mice for each group): Eight 8-week-old male c57/BL6 mice (normal mice; initial body weight, average 35.6±3.3 g) treated with a normal diet were used for a control group. […]

[2] = system: mouse aortic smooth muscle cells (MASMs); experiment: Mitochondrial superoxide production (MitoSOX Red) in MASMs of aging stimulation model mice; assay type: cell-based; settings: MASMs from aging stimulation model mice; SL added to culture liquid
Experimental: For the measurement of mitochondrial superoxide production, mitochondrial ROS was measured using MitoSOX Red (mitochondrial superoxide fluorescent marker). MASMs were extracted, and incubated with MitoSOX (4 μM) in the dark room at 37° C. for 20 minutes. The MitoSOX fluorescence was quantified by the cell fluorescence intensity read using a fluorescent plate reader (480 nm excitation/580 nm emission) (FIG. 17b).
In FIGS. 17a and 17b, MASMs were extracted from the aging stimulation model mouse control group, and the SL (3′-SL & 6′-SL) compositions were added to the culture liquid to conduct comparison.
FIGS. 17a and 17b show the measurement results of intercellular H2O2 (ROS values) (FIG. 17a) and the measurement results of mitochondrial superoxide production (FIG. 17b).

telomerase = experiment: Telomerase activity (TRAP) in vivo, aorta of aging stimulation models; design: species or system mouse; settings: oral 0.1 mg/kg/day
Experimental: In order to investigate the gene expression changes by body parts by the treatment with SL (3′-SL & 6′-SL) compositions in aging stimulation models, 4-week-old male aging stimulation model mice (SAM P1/Sku Slc) were purchased from Central Lab Animal (Korea). Water was freely accessible, and a commercially available pellet feed (Dooyeul Biotech, Korea) was given for one week. […]
In FIGS. 18a and 18b, the telomerase activity was measured using TRAP protocol (Wright et al., 1995). […] The fluorescence of the thus obtained TRAP product was measured using a fluorescent plate reader to quantify telomerase activity. Relative telomerase activity was normalized by the ratio of native […] to sulforhodamine (internal control standard), expressed as a percentage. […]

Structure (SMILES) | expression levels of analysis targets (Fndc5, PGC-1α, Erra, UCP1, BDNF, SOD2, GPX1) vs negative control (PGC-1α and related genes) | escape time in the cognitive ability test (Morris water maze) [1] | mitochondrial superoxide production [2] | telomerase activity in aorta sample (in vivo) (telomerase)
CC(=O)N[C@H]1[C@H]([C@H](O)[C@H](O)CO)O[C@@](OC[C@H]2O[C@@H](O[C@H]3[C@H](O)[C@@H](O)[C@H](O)O[C@@H]3CO)[C@H](O)[C@@H](O)[C@H]2O)(C(=O)O)C[C@@H]1O [6′-SL, α-NeuNAc-(2→6)-β-D-Gal-(1→4)-D-Glc] | significant increases | definitely fast | inhibited the mitochondrial superoxide production | increased telomerase activity
CC(=O)N[C@H]1[C@H]([C@H](O)[C@H](O)CO)O[C@@](O[C@H]2[C@@H](O)[C@@H](CO)O[C@@H](O[C@H]3[C@H](O)[C@@H](O)C(O)O[C@@H]3CO)[C@@H]2O)(C(=O)O)C[C@@H]1O (stereo partly drawn) [3′-SL, α-NeuNAc-(2→3)-β-D-Gal-(1→4)-D-Glc] | significant increases; also recorded: lower than that of 6′-SL | relatively low compared with 6′-SL | inhibited the mitochondrial superoxide production | increased telomerase activity
